Source: article PMC12122562, “Phase 1 studies of the indenoisoquinolines LMP776 and LMP744 in patients with solid tumors and lymphomas” (Cancer Chemotherapy and Pharmacology, 2025)
Several values for one entry are separate records, joined by “and”; a condition that tells them apart may be missing. Identical values can stand only once. Entries after “also recorded” stand apart in the source; their conditions may differ.

System: patients with advanced, refractory solid tumors or lymphomas
Assay: Phase 1 trial of LMP744 (NCT03030417): safety, MTD, adverse events (CTCAE v4.03/v5.0)
Assay type: in vivo, human
Description: The primary objectives of each study included establishing safety, tolerability, MTD, and recommended phase 2 dose (RP2D) of LMP776 and LMP744 as single agents. The LMP744 study included evaluation of tumor pharmacodynamics as an exploratory objective. Both trials were opened at the National Cancer Institute’s (NCI) Developmental Therapeutics Clinic, and the LMP744 trial was also opened at the University of Pittsburgh Hillman Cancer Center. Both trials used an accelerated dose escalation designs (Simon design 4 for LMP776, Simon design 3 for LMP744) to determine the MTD [30]. Dose levels are listed in Supplementary Table 1. Once the MTD was determined, additional patients were enrolled at that DL in an expansion cohort to evaluate pharmacodynamic changes as described below. LMP776 and LMP744 were administered intravenously through a central line via a 1-h infusion on days 1–5 (QDx5) in 28-day cycles. Both agents were supplied by the NCI Division of Cancer Treatment and Diagnosis (DCTD). The studies were approved by the NIH Institutional Review Board and conducted in accordance with the Declaration of Helsinki.
Patients were enrolled in either NCT01051635 evaluating LMP776 or NCT03030417 evaluating LMP744; these trials were conducted sequentially. Both trials required that patients be ≥ 18 years of age with solid tumors or lymphomas refractory to other treatments. Patients were required to have adequate performance status (Eastern Cooperative Oncology Group [ECOG] performance status ≤ 2), bone marrow function, and organ function as described in the Supplementary Methods. Patients in expansion phases at the MTD were required to have disease amenable to biopsy collection and be willing to undergo research biopsies. All patients provided written informed consent.
Tumor responses were evaluated by serial CT scans according to RECIST v1.1 criteria. CT scans were performed every other cycle during the first year, then every 3 cycles after the first year. Toxicities associated with LMP776 were evaluated according to criteria specified in CTCAE version 4.0; toxicities associated with LMP744 were evaluated according to the criteria specified in CTCAE version 4.03 (on or before March 31, 2018) or version 5.0 (on or after April 1, 2018). Criteria for all versions can be found at https://ctep.cancer.gov/protocolDevelopment/electronic_applications/ctc.htm. Any patient who received a dose of either agent was considered eligible for toxicity evaluation.

[1] = all DLs, highest grade per patient

## COc1cc2c3c(n(CCCNCCO)c(=O)c2cc1OC)-c1cc2c(cc1C3=O)OCO2 [LMP744]
DL7 (260 mg/m^2/day)
  Grade 3 non-hematologic DLTs: elevated ALT, AST, and GGT in one patient; also recorded: nausea, vomiting, and dehydration
IV QDx5, 28-day cycles (DL6)
  Maximum tolerated dose (MTD): 190 mg/m^2/day
Across all DLs
  Anemia, grade ≥ 2, prevalence: 36%
  Fatigue, grade ≥ 2, prevalence: 22%
  Lymphopenia, grade ≥ 2, prevalence: 39%
All DLs
  Alanine aminotransferase increased, grade ≥ 2, Total (%): 2 (6)
  Alkaline phosphatase increased, grade ≥ 2, Total (%): 3 (9)
  Anorexia, grade ≥ 2, Total (%): 2 (6)
  Aspartate aminotransferase increased, grade ≥ 2, Total (%): 2 (6)
  Blood bilirubin increased, grade ≥ 2, Total (%): 2 (6)
  Constipation, grade ≥ 2, Total (%): 1 (3)
  Creatinine increased, grade ≥ 2, Total (%): 5 (14)
  Dehydration, grade ≥ 2, Total (%): 4 (11)
  Diarrhea, grade ≥ 2, Total (%): 1 (3)
  Dry skin, grade ≥ 2, Total (%): 1 (3)
  Edema - limbs, grade ≥ 2, Total (%): 1 (3)
  Febrile Neutropenia, grade ≥ 2, Total (%): 1 (3)
  GGT increased, grade ≥ 2, Total (%): 6 (17)
  Hyperglycemia, grade ≥ 2, Total (%): 1 (3)
  Hypoalbuminemia, grade ≥ 2, Total (%): 1 (3)
  Hypokalemia, grade ≥ 2, Total (%): 2 (6)
  Hypomagnesemia, grade ≥ 2, Total (%): 2 (6)
  Hyponatremia, grade ≥ 2, Total (%): 1 (3)
  Hypophosphatemia, grade ≥ 2, Total (%): 6 (17)
  Hypothyroidism, grade ≥ 2, Total (%): 1 (3)
  Hypoxia, grade ≥ 2, Total (%): 1 (3)
  INR increased, grade ≥ 2, Total (%): 1 (3)
  Infections and infestations - NOS, grade ≥ 2, Total (%): 2 (6)
  Infusion site extravasation, grade ≥ 2, Total (%): 1 (3)
  Leukopenia (White blood cell count decreased), grade ≥ 2, Total (%): 5 (14)
  Nausea, grade ≥ 2, Total (%): 6 (17)
  Neutropenia, grade ≥ 2, Total (%): 5 (14)
  Pain - biopsy site, grade ≥ 2, Total (%): 1 (3)
  Platelet count decreased, grade ≥ 2, Total (%): 2 (6)
  Proteinuria, grade ≥ 2, Total (%): 2 (6)
  Sudden death - NOS, Total (%): 1 (3)
  Thrombophlebitis - superficial, grade ≥ 2, Total (%): 1 (3)
  Urinary tract infection, grade ≥ 2, Total (%): 1 (3)
  Vomiting, grade ≥ 2, Total (%): 6 (17)
  Weight loss, grade ≥ 2, Total (%): 4 (11)
  White blood cell count increased, grade ≥ 2, Total (%): 1 (3)
[1]
  Anemia, grade ≥ 2, Total (%): 13 (37) and 13 (36)
  Fatigue, grade ≥ 2, Total (%): 8 (23) and 8 (22)
Enrolled at DL6 (n = 6) or DL7 (n = 5)
  Patients requiring dose reductions: Eleven
Grade 2, DL1-DL5
  Alanine aminotransferase increased, patients: 1
  Alkaline phosphatase increased, patients: 1
  Anemia, patients: 2
  Edema - limbs, patients: 1
  GGT increased, patients: 1
  Hypophosphatemia, patients: 1
  Proteinuria, patients: 1
  Vomiting, patients: 1
Grade 2, DL1-DL5 (n = 7)
  Lymphopenia (Lymphocyte count decreased), patients: 1
Grade 2, DL6
  Alanine aminotransferase increased, patients: 1
  Alkaline phosphatase increased, patients: 1
  Anemia, patients: 4
  Anorexia, patients: 1
  Aspartate aminotransferase increased, patients: 1
  Blood bilirubin increased, patients: 1
  Constipation, patients: 1
  Creatinine increased, patients: 3
  Dehydration, patients: 1
  Diarrhea, patients: 1
  Dry skin, patients: 1
  Fatigue, patients: 6
  GGT increased, patients: 3
  Hyperglycemia, patients: 1
  Hypoalbuminemia, patients: 1
  Hypomagnesemia, patients: 1
  Hyponatremia, patients: 1
  Hypophosphatemia, patients: 4
  Hypothyroidism, patients: 1
  Infections and infestations - NOS, patients: 2
  Infusion site extravasation, patients: 1
  Leukopenia (White blood cell count decreased), patients: 3
  Nausea, patients: 3
  Neutropenia, patients: 3
  Pain - biopsy site, patients: 1
  Platelet count decreased, patients: 1
  Proteinuria, patients: 1
  Thrombophlebitis - superficial, patients: 1
  Urinary tract infection, patients: 1
  Vomiting, patients: 4
  Weight loss, patients: 4
  White blood cell count increased, patients: 1
Grade 2, DL6 (n = 18; suppl. n=17)
  Lymphopenia (Lymphocyte count decreased), patients: 1
Grade 2, DL7
  Alkaline phosphatase increased, patients: 1
  Anemia, patients: 7
  Anorexia, patients: 1
  Blood bilirubin increased, patients: 1
  Creatinine increased, patients: 2
  Dehydration, patients: 1
  Fatigue, patients: 2
  Hypomagnesemia, patients: 1
  Hypophosphatemia, patients: 1
  INR increased, patients: 1
  Leukopenia (White blood cell count decreased), patients: 1
  Nausea, patients: 1
  Platelet count decreased, patients: 1
  Vomiting, patients: 1
Grade 2, DL7 (n = 11)
  Lymphopenia (Lymphocyte count decreased), patients: 4
Grade 2, all DLs (n=35)
  Alanine aminotransferase increased, patients: 2
  Alkaline phosphatase increased, patients: 3
  Anemia, patients: 13
  Anorexia, patients: 2
  Aspartate aminotransferase increased, patients: 1
  Blood bilirubin increased, patients: 2
  Constipation, patients: 1
  Creatinine increased, patients: 5
  Dehydration, patients: 2
  Diarrhea, patients: 1
  Dry skin, patients: 1
  Edema - limbs, patients: 1
  Fatigue, patients: 8
  GGT increased, patients: 4
  Hyperglycemia, patients: 1
  Hypoalbuminemia, patients: 1
  Hypomagnesemia, patients: 2
  Hyponatremia, patients: 1
  Hypophosphatemia, patients: 6
  Hypothyroidism, patients: 1
  INR increased, patients: 1
  Infections and infestations - NOS, patients: 2
  Infusion site extravasation, patients: 1
  Lymphocyte count decreased, patients: 6
  Nausea, patients: 4
  Neutropenia, patients: 3
  Platelet count decreased, patients: 3
  Proteinuria, patients: 2
  Thrombophlebitis - superficial, patients: 1
  Urinary tract infection, patients: 1
  Vomiting, patients: 6
  Weight loss, patients: 4
  White blood cell count decreased, patients: 4
  White blood cell count increased, patients: 1
Grade 3, DL6
  Dehydration, patients: 1
  Febrile Neutropenia, patients: 1
  GGT increased, patients: 1
  Hypokalemia, patients: 1
  Hypoxia, patients: 1
  Lymphopenia (Lymphocyte count decreased), patients: 5
  Nausea, patients: 1
  Neutropenia, patients: 1
Grade 3, DL7
  Aspartate aminotransferase increased, patients: 1
  Dehydration, patients: 1
  GGT increased, patients: 1
  Hypokalemia, patients: 1
  Lymphopenia (Lymphocyte count decreased), patients: 2
  Nausea, patients: 1
Grade 3, all DLs (n=35)
  Aspartate aminotransferase increased, patients: 1
  Dehydration, patients: 1
  Febrile Neutropenia, patients: 1
  GGT increased, patients: 2
  Hypokalemia, patients: 2
  Hypoxia, patients: 1
  Lymphocyte count decreased, patients: 7
  Nausea, patients: 2
  Neutropenia, patients: 1
Grade 4, DL6
  Leukopenia (White blood cell count decreased), patients: 1
  Lymphopenia (Lymphocyte count decreased), patients: 1
  Neutropenia, patients: 1
Grade 4, all DLs (n=35)
  Lymphocyte count decreased, patients: 1
  Neutropenia, patients: 1
  White blood cell count decreased, patients: 1
Grade 5, DL7
  Sudden death - NOS, patients: 1
One patient, DL7
  Death considered possibly related to treatment: grade 5 sudden death – NOS; also recorded: died of a pulmonary embolism
